# Values of other authors in patent US20100189771A1, “FIXED RATIO DRUG COMBINATION TREATMENTS FOR SOLID TUMORS” (priority 2005, published 2010).
# Like-named read-outs stand apart in the source and are kept apart here.
# Settings: conventional irinotecan
compound,measurement,setting,value
"CCc1c2c(nc3ccc(OC(=O)N4CCC(N5CCCCC5)CC4)cc13)-c1cc3c(c(=O)n1C2)COC(=O)[C@]3(O)CC [Irinotecan, irinotecan]",IRINOTECAN AUC,"dose 240 mg/m^2, N=3","18,091 ng-h/ml"
same,IRINOTECAN Cmax,"dose 240 mg/m^2, N=3, patients' plasma","2,810 ng/ml"
same,IRINOTECAN AUC,"dose 340 mg/m^2, N=6","22,998 ng-h/ml"
same,IRINOTECAN Cmax,"dose 340 mg/m^2, N=6","3,392 ng/ml"
